Reference: patent US20060270871A1, “P[…] I OF […] PROCESSES FOR ITS PREPARATION” (priority 2005, published 2006)
Read-outs that look alike come from different tables or passages of the source.

Experiments:
[1] = hygroscopicity of anhydrous pregabalin; format: physicochemical; conditions: moisture content less than about 0.3% w/w
[2] = accelerated stability testing; conditions: anhydrous pregabalin, moisture content less than about 0.3% w/w
[3] = relative to (S)-(+)-pregabalin, type of activity not specified, cited from earlier work

Row | Compound | hygroscopicity [1] | stability during the accelerated stability testing [2] | times less active when compared with the (S)-(+)-enantiomer [3] | times less active when compared with the (S)-(+)-enantiomer ([3]; listed as (R)-(−)-enantiomer)
1 | CC(C)CC(CN)CC(=O)O (stereo in doubt) [anhydrous pregabalin, (S)-(+)-3-aminomethyl-5-methyl-1-hexanoic acid] | non-hygroscopic | stable |  | 
2 | CC(C)C[C@@H](CN)CC(=O)O (single isomer, unassigned) [(R)-(−)-enantiomer of pregabalin] |  |  | about 40 times | 40 times
